Laboratory results published in patent US5462954A, “Substituted phenyl phenol leukotriene antagonists” (Eli Lilly and Company, priority 1994, dated 1995).
Counter-ions that a name gives are not always drawn.

target: binding of tritiated LTB4 to guinea pig lung membranes (Cavia porcellus, UniProt H0VYV8); test: biochemical; settings: read-out: pKi (mean -log Ki) (converted)
Sequence (H0VYV8 1-348): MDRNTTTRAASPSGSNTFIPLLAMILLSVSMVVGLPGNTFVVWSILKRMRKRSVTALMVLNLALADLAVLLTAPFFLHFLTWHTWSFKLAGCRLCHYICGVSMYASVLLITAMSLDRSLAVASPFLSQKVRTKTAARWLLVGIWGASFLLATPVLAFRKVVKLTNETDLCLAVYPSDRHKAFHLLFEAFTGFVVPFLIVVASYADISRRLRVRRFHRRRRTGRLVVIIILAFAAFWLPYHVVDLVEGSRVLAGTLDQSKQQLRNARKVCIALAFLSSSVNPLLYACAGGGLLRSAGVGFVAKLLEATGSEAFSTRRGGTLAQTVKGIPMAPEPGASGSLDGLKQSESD
Description: The effectiveness of compounds of Formula I to inhibit the binding of tritiated LTB4 to guinea pig lung membranes was determined as follows.
The binding reaction was terminated by the addition of 1 mL ice cold wash buffer (25 mM Tris-HCl, pH 7.5) followed immediately by vacuum filtration over Whatman GF/C glass fiber filters using a Brandel (Gaithersburg, Md.) 48 place harvester. The filters were washed three times with 1 mL of wash buffer. Retained radioactivity was determined by liquid scintillation counting at 50% counting efficiency using Ready Protein Plus cocktail (Beckman, Fullerton, Calif.). Nondisplaceable binding was determined in the presence of 1 μM LTB4 and was usually less than 10% of total binding. […] The data reported below is the mean -log Ki, otherwise known as the pKi, for n experiments.

| SMILES | Ki |
| --- | --- |
| CCCc1c(CCC(=O)O)cccc1OCCCOc1cc(O)c(-c2ccc(F)cc2)cc1CC [Example 95, 3-(3-{3-[2-Ethyl-4-(4-fluorophenyl)-5-hydroxyphenyloxy]propoxy}-2-propylphenyl)propanoic acid] | 5.5 nM |
| CCCc1c(OCCCOc2cc(O)c(-c3ccc(F)cc3)cc2CC)cccc1Oc1ccccc1CC(=O)O [Example 77, 2-[2-Propyl-3-[3-[2-ethyl-5-hydroxy-4-(4-fluorophenyl)phenoxy]propoxy]phenoxy]phenylacetic acid] | 8.13 nM |
| CCc1cc(-c2ccc(F)cc2)c(O)cc1OCCCOc1ccccc1CCC(=O)O [Example 4, 3-(2-(3-(2-Ethyl-4-(4-fluorophenyl)-5-hydroxyphenoxy)propoxy)phenyl)propionic acid] | 3.63 nM |
| CCc1cc(-c2ccc(F)cc2)c(O)cc1OCCCOc1cccc(OCCCCC(=O)N(C)C)c1CCC(=O)O [Example 3, 3-(2-(3-(2-Ethyl-4-(4-fluorophenyl)-5-hydroxyphenoxy)propoxy)-6-(4-dimethylaminocarbonylbutyloxy)phenyl)propionic acid] | 8.32 nM |
| CCc1cc(-c2ccc(F)cc2)c(O)cc1OCCCOc1cccc(Oc2ccc(C(=O)O)cc2)c1CCC(=O)O [Example 25, 3-(2-(3-(2-Ethyl-4-(4-fluorophenyl)-5-hydroxyphenoxy)propoxy)-6-(4-carboxyphenoxy)phenyl)propionic acid] | 0.138 nM |
| CCc1cc(-c2ccc(F)cc2)c(O)cc1OCCCCc1ccccc1CCC(=O)O [Example 10, 3-(2-(4-(2-Ethyl-4-(4-fluorophenyl)-5-hydroxyphenoxy)butyl)phenyl)propionic acid] | 8.91 nM |
| CCCCc1c(OCCCOc2cc(O)c(-c3ccc(F)cc3)cc2CC)cccc1Oc1ccccc1C(=O)O [Example 75, 2-[2-Butyl-3-[3-[2-ethyl-5-hydroxy-4-(4-fluorophenyl)phenoxy]propoxy]phenoxy]benzoic acid hydrate] | 16.2 nM |
| CCc1cc(-c2ccc(F)cc2)c(O)cc1OCCCOc1cc(OCCCCC(=O)O)ccc1CCC(=O)O [Example 90, 3-(2-(3-(2-Ethyl-4-(4-fluorophenyl)-5-hydroxyphenoxy)propoxy)-4-(4-carboxybutyloxy)phenyl)propionic acid] | 20.9 nM |
| CCCc1cc(CCC(=O)O)ccc1OCCCOc1cc(O)c(-c2ccc(F)cc2)cc1CC [Example 94, 3-(4-{3-[2-Ethyl-4-(4-fluorophenyl)-5-hydroxyphenyloxy]propoxy}-3-propylphenyl)propanoic acid] | 20.9 nM |
| CCc1cc(-c2ccc(F)cc2)c(O)cc1OCCCOc1ccccc1C(O)C(C)(C)c1nnn[nH]1 (stereo not drawn) [Example 29, 2-Methyl-2-(1H-tetrazol-5-yl)-3-hydroxy-3-(2-(3-(2-ethyl-4-(4-fluorophenyl)-5-hydroxyphenoxy)propoxy)phenyl)propane] | 1.95 nM |
| CCc1cc(-c2ccc(F)cc2)c(O)cc1OCCCOc1ccc(CCCCC(=O)O)c2c1CCC(=O)O2 [Example 33, 5-(3-(2-Ethyl-4-(4-fluorophenyl)-5-hydroxyphenoxy)propoxy)-8-(4-carboxybutyl)dihydrocoumarin] | 0.257 nM |
| CCCc1c(CCC(=O)O)cccc1OCCCOc1cc(O)c(-c2ccccc2)cc1CC [Example 96, disodium salt] | 25.1 nM |
| CCCc1c(OCCCOc2cc(O)c(-c3ccc(F)cc3)cc2CC)cccc1[S+]([O-])c1ccccc1C(=O)O (stereo not drawn) [Example 81, 2-[2-Propyl-3-[3-[2-ethyl-4-(4-fluorophenyl)-5-hydroxyphenoxy]propoxy]phenylsulfinyl]benzoic acid] | 1.35 nM |
| CCc1cc(-c2ccc(F)cc2)c(O)cc1OCCCOc1cccc(O)c1CCC(=O)O [Example 13, 3-(2-(3-(2-Ethyl-4-(4-fluorophenyl)-5-hydroxyphenoxy)propoxy)-6-hydroxyphenyl)propionic acid] | 0.977 nM |
| CCc1cc(-c2ccc(F)cc2)c(O)cc1OCCCOc1cccc(CCC(=O)O)c1 [Example 92, 3-(3-{3-[2-Ethyl-4-(4-fluorophenyl)-5-hydroxyphenyloxy]propoxy}phenyl)propanoic acid] | 8.32 nM |
